ChEMBL document CHEMBL3769388, “Optimization of a Dicarboxylic Series for in Vivo Inhibition of Citrate Transport by the Solute Carrier 13 (SLC13) Family” (J Med Chem, 2016)
Blank lines part the entries; values can stand above or below the compound they belong to.

What was measured:
[1] = target: T1, Na(+)/citrate cotransporter (Homo sapiens, UniProt Q86YT5); assay: Inhibition of NaCT (unknown origin) expressed in HEK293 cells assessed as inhibition of [14C]citrate uptake by microbeta plate reader analysis; format: cell-based
[2] = Renal clearance in Wistar Han rat at 1 mg/kg, iv by LC-MS/MS analysis; format: ADME, organism-based, Kidney; settings: in vivo
[3] = Volume of distribution at steady state in Wistar Han rat at 1 mg/kg, iv by LC-MS/MS analysis; format: ADME, organism-based; settings: in vivo, read-out: Vdss
[4] = Total plasma clearance in Wistar Han rat at 1 mg/kg, iv by LC-MS/MS analysis; format: ADME, organism-based
[5] = target: T1, Na(+)/citrate cotransporter; assay: Inhibition of NaCT in human hepatocytes assessed as [14C]-citrate uptake after 30 mins by scintillation counting method; format: cell-based, Hepatocyte
[6] = Fraction unbound in Wistar Han rat by equilibrium dialysis method; format: ADME
[7] = Half life in Wistar Han rat at 1 mg/kg, iv by LC-MS/MS analysis; format: ADME, organism-based; settings: in vivo
[8] = AUC(0 to t) in Wistar Han rat at 5 mg/kg, po by LC-MS/MS analysis; format: ADME, organism-based; settings: in vivo
[9] = target: T2, Solute carrier family 13 member 2 (Homo sapiens, UniProt Q13183); assay: Inhibition of NaDC1 (unknown origin) expressed in HEK293 cells assessed as inhibition of [14C]citrate uptake by microbeta plate reader analysis; format: cell-based; settings: read-out: IC50
T2 sequence (Q13183 whole entry): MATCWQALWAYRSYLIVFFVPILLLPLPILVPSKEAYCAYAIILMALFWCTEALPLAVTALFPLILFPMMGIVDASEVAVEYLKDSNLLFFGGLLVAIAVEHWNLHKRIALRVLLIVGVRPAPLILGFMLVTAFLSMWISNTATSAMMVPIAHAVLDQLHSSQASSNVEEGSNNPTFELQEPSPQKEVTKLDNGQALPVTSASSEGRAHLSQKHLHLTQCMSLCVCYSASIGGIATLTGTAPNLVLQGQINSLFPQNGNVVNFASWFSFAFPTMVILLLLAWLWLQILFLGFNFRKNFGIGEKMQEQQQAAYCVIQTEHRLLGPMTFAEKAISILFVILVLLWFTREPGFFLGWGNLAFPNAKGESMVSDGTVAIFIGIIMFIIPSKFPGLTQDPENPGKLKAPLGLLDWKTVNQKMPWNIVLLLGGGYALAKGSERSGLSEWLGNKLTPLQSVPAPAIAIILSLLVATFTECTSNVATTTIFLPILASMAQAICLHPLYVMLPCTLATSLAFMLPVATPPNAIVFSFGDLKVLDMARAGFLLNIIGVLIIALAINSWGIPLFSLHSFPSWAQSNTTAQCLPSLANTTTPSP

[10] = Clearance in human hepatocytes assessed per 10^6 cells; format: ADME, cell-based, Hepatocyte; settings: read-out: CLH
[11] = Passive permeability in MDCK cells; format: ADME, cell-based, Canis lupus familiaris; settings: dog

T1 sequence (Q86YT5 whole entry): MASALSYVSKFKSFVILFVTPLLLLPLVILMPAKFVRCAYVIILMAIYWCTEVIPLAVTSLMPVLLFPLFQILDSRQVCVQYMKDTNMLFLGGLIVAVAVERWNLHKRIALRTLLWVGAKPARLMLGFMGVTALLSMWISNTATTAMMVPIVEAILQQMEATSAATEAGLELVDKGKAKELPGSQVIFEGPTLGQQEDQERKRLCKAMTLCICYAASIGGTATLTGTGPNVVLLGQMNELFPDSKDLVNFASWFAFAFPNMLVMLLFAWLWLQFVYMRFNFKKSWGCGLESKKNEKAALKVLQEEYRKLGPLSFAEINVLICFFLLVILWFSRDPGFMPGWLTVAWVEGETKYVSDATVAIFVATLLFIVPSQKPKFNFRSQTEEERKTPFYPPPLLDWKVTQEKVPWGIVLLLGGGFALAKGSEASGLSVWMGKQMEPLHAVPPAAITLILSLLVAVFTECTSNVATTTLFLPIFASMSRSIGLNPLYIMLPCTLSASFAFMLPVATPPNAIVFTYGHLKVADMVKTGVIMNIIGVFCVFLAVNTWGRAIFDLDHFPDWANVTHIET

SMILES: COc1ncccc1CCC(O)(CC(=O)O)C(=O)O (racemic)
- IC50 ([1]; read-out: IC50): 3.37 µM

SMILES: O=C(O)CC(O)(CCc1ccccc1)C(=O)O (racemic)
- IC50 ([1]; read-out: IC50): > 17 µM

SMILES: COc1ncc(C)cc1CC[C@](O)(CC(=O)O)C(=O)O
- CL renal [2]: 2.8 mL/min/kg
- Vd [3]: 0.2 L/kg
- clearance [4]: 9.9 mL/min/kg
- IC50 ([1]; read-out: IC50): > 18 µM
- fraction unbound [6]: 0.058
- half-life [7]: 1 h
- AUC(0-t) [8]: 499 ng·h/mL

SMILES: CCOc1ncccc1CC[C@](O)(CC(=O)O)C(=O)O
- IC50 ([1]; read-out: IC50): > 25 µM
- IC50 [5]: > 30 µM

SMILES: CC(C)(C)c1ccc(CCC(O)(CC(=O)O)C(=O)O)cc1 (racemic)
- CL renal [2]: 1.9 mL/min/kg
- Vd [3]: 0.45 L/kg
- clearance [4]: 8.5 mL/min/kg
- fraction unbound [6]: 0.073
- half-life [7]: 1.2 h
- AUC(0-t) [8]: 1850 ng·h/mL

SMILES: CC(C)(C)c1ccc(CC[C@@](O)(CC(=O)O)C(=O)O)cc1
- CL renal [2]: 0.5 mL/min/kg
- Vd [3]: 0.24 L/kg
- clearance [4]: 4.5 mL/min/kg
- IC50 [9]: > 100 µM
- hepatocyte CLint [10]: < 6 µL/min/1e6 cells
- fraction unbound [6]: 0.054
- half-life [7]: 1 h
- Papp [11]: 1 ×10⁻⁶ cm/s
- AUC(0-t) [8]: 2570 ng·h/mL

Further lines, results first:

- IC50 ([1]; read-out: IC50): 0.11 µM
SMILES: CCOc1ncccc1CCC(O)(CC(=O)O)C(=O)O (racemic)

- CL renal [2]: 1.8 mL/min/kg
- Vd [3]: 0.13 L/kg
- clearance [4]: 6.7 mL/min/kg
- IC50 ([1]; read-out: IC50): 0.11 µM
- IC50 [5]: 0.33 µM
- fraction unbound [6]: 0.086
- half-life [7]: 0.9 h
- AUC(0-t) [8]: 2650 ng·h/mL
SMILES: CCOc1ncccc1CC[C@@](O)(CC(=O)O)C(=O)O

- IC50 ([1]; read-out: IC50): 0.19 µM
SMILES: CCOc1ncc(C)cc1CCC(O)(CC(=O)O)C(=O)O (racemic)

- IC50 ([1]; read-out: IC50): 0.65 µM
- IC50 ([1]; read-out: pIC50 (converted)): 0.316 µM
SMILES: COc1ncc(C)cc1CCC(O)(CC(=O)O)C(=O)O (racemic)

- IC50 ([1]; read-out: IC50): 1.65 µM
SMILES: COc1ccc(C)cc1CCC(O)(CC(=O)O)C(=O)O (racemic)

- IC50 ([1]; read-out: IC50): 0.33 µM
SMILES: CC(C)Oc1ncccc1CCC(O)(CC(=O)O)C(=O)O (racemic)
